23 molecules from US12173026B2, “PRMT5 inhibitors” (Merck Sharp & Dohme LLC, priority 2018, dated 2024) can be followed below.

By EC50 is commonly meant the concentration needed to bring the measured effect to its halfway point.

In this test the test system is symmetric dimethylation of arginine (SDMA) of PRMT5 substrates in MCF-7 cells. Put plainly: PRMT5 Cell Target Engagement (TE) Assay. It is filed as cell-based. The following applies: Homo sapiens, MCF7, 72 h; MCF-7 cells treated for 3 days; nuclear SDMA by high content imaging; top concentration 10000 nM. The source says:
PRMT5 Cell Target Engagement (TE) Assay
The PRMT5 TE assay is a biomarker assay for identifying compounds that inhibit symmetric dimethylation of arginine (SDMA) of PRMT5 substrates. The following substrates have been reported for PRMT5: Histone H2A and H4 R3, Histone H3 R2, Histone 1-13 R8, spliceosome Sm proteins, ribosomal protein RPS10, p53, FEN1, nucleoplasmin, nucleolin, EGFR and EBNA. The assay will focus on detecting symnetrically dimethylated nuclear proteins using high content imaging technology. Detection of the expression of symmetrically dimethylated nuclear proteins is through a mixture of primary rabbit monoclonal antibodies to SDMA (CST 13222) which in turn recognized by an Alexafluor 488 dye-conjugated anti-rabbit IgG secondary antibody. The IN Cell Analyzer 2200 or Opera-Phenix measures nuclear Alexafluor 488 fluorescent dye intensity that is directly related to the level of expression of symmetrically dimethylated nuclear proteins at the single cell level. Nuclear AF488 dye intensities are compared to the mean value for DMSO treated cells (MIN) to report percent of inhibition for each compound-treated well.
In this assay, the cell potency (EC50) of each compound was determined from a ten point (1:3 serial dilution; top compound concentration of 10000 nM) titration curve using the following outlined procedure. Each well of a BD falcon collagen coated black/clear bottom 384-well plate was seeded with 4000 MCF-7 cells in 30 pal media and allowed to attach for 5 hours. Media is ATCC-formulated Eagle's Minimum Essential Medium, Catalog No. 30-2003. The following components were added to the base medium: 0.01 mg/mL human recombinant insulin; fetal bovine serum to a final concentration of 10%. Additional 30 pal of media containing 2× compounds were added to each well. Cells were treated for 3 days in 37° C. CO2 incubator. On day 3, cells were fixed with Cytofix, permeabilized with 0.4% Triton-X-100/Cytofix, and washed with D-PBS without Ca/Mg. Cells were blocked with Licor Odessey blocking reagent for 1 hour at room temperature, followed by incubation with anti-SDMA (1:1000) antibody at 4° C. overnight. 1° antibody was removed, followed by three washings with DPBS without Ca/Mg and 0.05% Tween20. Hoechst (5 μg/mL), Cell Mask deep stain (1:2000) and Alexa488-conjugated goat anti-rabbit IgG (2 μg/mL) was added for 1 hour at room temperature. A final washing step (three washes) was performed before sealing plate for imaging on in Cell Analyzer 2200 or Opera-Phenix. Images from analyzer were uploaded to Columbus for image analysis. IC50 values were determined by 4 parameters robust fit of percent fluorescence units vs. (Log 10) compound concentrations.

The molecule `C[C@@]1(O)[C@@H](COc2ccc3cc(Br)c(N)nc3c2)C[C@@H](n2ccc3c(Cl)ncnc32)[C@@H]1O` [Example 1] registered an EC50 of 18 nM. Turning to `C[C@@]1(O)[C@@H](COc2ccc3cc(Br)c(N)nc3c2)C[C@@H](n2ccc3c(N)ncnc32)[C@@H]1O` [Example 2], the EC50 came to 0.7 nM. In the case of `C#C[C@@]1(O)[C@@H](COc2ccc3cc(Br)c(N)nc3c2)O[C@@H](n2ccc3c(N)ncnc32)[C@@H]1O` [Example 3, (2R,3S,4R,5R)-2-(((2-amino-3-bromoquinolin-7-yl)oxy)methyl)-5-(4-amino-7H-pyrrolo[2,3-d]pyrimidin-7-yl)-3-ethynyltetrahydrofuran-3,4-diol], the EC50 stood at 20 nM. With `C[C@]1(CCc2ccc3cc(Br)c(N)nc3c2)O[C@@H](n2ccc3c(N)ncnc32)[C@H](O)[C@]1(C)O` [Example 4, (2R,3S,4R,5R)-2-(2-(2-amino-3-bromoquinolin-7-yl)ethyl)-5-(4-amino-7H-pyrrolo[2,3-d]pyrimidin-7-yl)-2,3-dimethyltetrahydrofuran-3,4-diol] the figure was 186 nM. The same measure for `Nc1nc2cc(O[C@H]3CC[C@@]4(O)[C@@H]3O[C@@H](n3ccc5c(Cl)ncnc53)[C@@H]4O)ccc2cc1Br` [Example 5, (2R,3R,3aS,6S,6aR)-6-((2-amino-3-bromoquinolin-7-yl)oxy)-2-(4-chloro-7H-pyrrolo[2,3-d]pyrimidin-7-yl)hexahydro-2H-cyclopenta[b]furan-3,3a-diol]: 19 nM. For `Nc1nc2cc(O[C@H]3CC[C@@]4(O)[C@@H]3O[C@@H](n3ccc5c(N)ncnc53)[C@@H]4O)ccc2cc1Br` [Example 6, (2R,3R,3aS,6S,6aR)-6-((2-amino-3-bromoquinolin-7-yl)oxy)-2-(4-amino-7H-pyrrolo[2,3-d]pyrimidin-7-yl)hexahydro-2H-cyclopenta[b]furan-3,3a-diol], the EC50 is 1.2 nM.

For `Cc1ncnc2c1ccn2[C@@H]1O[C@@H]2[C@@H](Oc3ccc4cc(Br)c(N)nc4c3)CC[C@]2(O)[C@H]1O` [Example 7, (2R,3R,3aS,6S,6aR)-6-((2-amino-3-bromoquinolin-7-yl)oxy)-2-(4-methyl-7H-pyrrolo[2,3-d]pyrimidin-7-yl)hexahydro-2H-cyclopenta[b]furan-3,3a-diol], the response was half-maximal at 4.8 nM (EC50). The molecule `Cc1ncnc2c1ccn2[C@@H]1O[C@@H]2[C@H](Cc3ccc4cc(Br)c(N)nc4c3)CC[C@]2(O)[C@H]1O` [Example 8, (2R,3R,3aS,6S,6aR)-6-((2-amino-3-bromoquinolin-7-yl)methyl)-2-(4-methyl-7H-pyrrolo[2,3-d]pyrimidin-7-yl)hexahydro-2H-cyclopenta[b]furan-3,3a-diol] yielded an EC50 of 0.5 nM. Molecule `Nc1nc2cc(C[C@@H]3CC[C@@]4(O)[C@@H]3O[C@@H](n3ccc5c(N)ncnc53)[C@@H]4O)ccc2cc1Br` [Example 9, (2R,3R,3aS,6S,6aR)-6-((2-amino-3-bromoquinolin-7-yl)methyl)-2-(4-amino-7H-pyrrolo[2,3-d]pyrimidin-7-yl)hexahydro-2H-cyclopenta[b]furan-3,3a-diol] returned a half-maximal effective concentration (EC50) of 1.3 nM.

Molecule `C[C@@]1(O)[C@@H](COc2ccc3cc(Br)c(N)nc3c2)O[C@@H](n2ccc3c(N)ncnc32)[C@@H]1O` [Example 10, (2R,3S,4R,5R)-2-(((2-amino-3-bromoquinolin-7-yl)oxy)methyl)-5-(4-amino-7H-pyrrolo[2,3-d]pyrimidin-7-yl)-3-methyltetrahydrofuran-3,4-diol] returned an EC50 of 6.4 nM. Molecule `C[C@@]1(O)[C@@H](COc2ccc3cc(Br)c(N)nc3c2)O[C@@H](n2ccc3c(Cl)ncnc32)[C@@H]1O` [Example 11, (2R,3S,4R,5R)-2-{[(2-amino-3-bromoquinolin-7-yl)oxy]methyl}-5-(4-chloro-7H-pyrrolo[2,3-d]pyrimidin-7-yl)-3-methyltetrahydrofuran-3,4-diol] returned an EC50 of 131 nM. In the case of `COc1ncnc2c1ccn2[C@@H]1O[C@](C)(COc2ccc3cc(Br)c(N)nc3c2)[C@@H](O)[C@H]1O` [Example 12, (2R,3S,4R,5R)-2-(((2-amino-3-bromoquinolin-7-yl)oxy)methyl)-5-(4-methoxy-7H-pyrrolo[2,3-d]pyrimidin-7-yl)-2-methyltetrahydrofuran-3,4-diol], it took 10000 nM to reach a half-maximal effect (EC50). With `C[C@]1(COc2ccc3cc(Br)c(N)nc3c2)O[C@@H](n2ccc3c(N)ncnc32)[C@H](O)[C@@H]1O` [Example 13, (2R,3S,4R,5R)-2-(((2-amino-3-bromoquinolin-7-yl)oxy)methyl)-5-(4-amino-7H-pyrrolo[2,3-d]pyrimidin-7-yl)-2-methyltetrahydrofuran-3,4-diol] the figure was 14 nM.

`C[C@@]1(O)[C@@H](CCc2ccc3cc(Br)c(N)nc3c2)O[C@@H](n2ccc3c(N)ncnc32)[C@@H]1O` [Example 14, (2R,3S,4R,5R)-2-(2-(2-amino-3-bromoquinolin-7-yl)ethyl)-5-(4-amino-7H-pyrrolo[2,3-d]pyrimidin-7-yl)-3-methyltetrahydrofuran-3,4-diol] returned an EC50 of 17 nM.

`C[C@]1(CCc2ccc3cc(Br)c(N)nc3c2)C[C@@H](n2ccc3c(N)ncnc32)[C@H](O)[C@@H]1O` [Example 15, (1S,2R,3S,5R)-3-[2-(2-amino-3-bromo-7-quinolinyl)ethyl]-5-(4-amino-7H-pyrrolo[2,3-d]pyrimidin-7-yl)-3-methyl-1,2-cyclopentanediol]: the EC50 was determined as 0.5 nM. For `Cc1ncnc2c1ccn2[C@@H]1C[C@@H]2[C@H](Cc3ccc4cc(F)c(N)nc4c3)CC[C@]2(O)[C@H]1O` [Example 16, (1S,2R,3aR,4S,6aR)-4-((2-amino-fluoroquinolin-7-yl)methyl)-2-(4-methyl-7H-pyrrolo[2,3-d]pyrimidin-7-yl)hexahydropentalene-1,6a(1H)-diol], the EC50 stood at 0.9 nM. With `Cc1ncnc2c1ccn2[C@@H]1C[C@@H]2[C@H](Cc3ccc4cc(Cl)c(N)nc4c3)CC[C@]2(O)[C@H]1O` [Example 17, (1S,2R,3aR,4S,6aR)-4-((2-amino-3-chloroquinolin-7-yl)methyl)-2-(4-methyl-7H-pyrrolo[2,3-d]pyrimidin-7-yl)hexahydropentalene-1,6a(1H)-diol] the figure was 0.9 nM; with `Cc1ncnc2c1ccn2[C@@H]1C[C@@H]2[C@@H](Cc3ccc4cc(F)c(N)nc4c3)CC[C@]2(O)[C@H]1O` [Example 18, (1S,2R,3aR,4R,6aR)-4-((2-amino-3-fluoroquinolin-7-yl)methyl)-2-(4-methyl-7H-pyrrolo[2,3-d]pyrimidin-7-yl)hexahydropentalene-1,6a(1H)-diol], 10.6 nM; with `Cc1ncnc2c1ccn2[C@@H]1C[C@@H]2[C@H](Cc3ccc4cc(Br)c(N)nc4c3)CC[C@]2(O)[C@H]1O` [Example 19, (1S,2R,3aR,4S,6aR)-4-((2-amino-3-bromoquinolin-7-yl)methyl)-2-(4-methyl-7H-pyrrolo[2,3-d]pyrimidin-7-yl)hexahydropentalene-1,6a(1H)-diol], 1.1 nM.

`Nc1nc2c(F)c(C[C@@H]3CC[C@@]4(O)[C@@H]3O[C@@H](n3ccc5c(N)ncnc53)[C@@H]4O)ccc2cc1F` [Example 20, (2R,3R,3aS,6S,6aR)-6-[(2-amino-3,8-difluoroquinolin-7-yl)methyl]-2-(4-amino-7H-pyrrolo[2,3-d]pyrimidin-7-yl)hexahydro-3aH-cyclopenta[b]furan-3,3a-diol] registered an EC50 of 18.6 nM. Turning to `Nc1nc2cc(C[C@@H]3CC[C@@]4(O)[C@@H]3O[C@@H](n3ccc5c(N)ncnc53)[C@@H]4O)cc(F)c2cc1Cl` [Example 21, (2R,3R,3aS,6S,6aR)-6-[(2-amino-3-chloro-5-fluoroquinolin-7-yl)methyl]-2-(4-amino-7H-pyrrolo[2,3-d]pyrimidin-7-yl)hexahydro-3aH-cyclopenta[b]furan-3,3a-diol], the EC50 stood at 0.5 nM. Take `Cc1ncnc2c1ccn2[C@@H]1O[C@@H]2[C@H](Cc3ccc4cc(Cl)c(N)nc4c3F)CC[C@]2(O)[C@H]1O` [Example 22, (2R,3R,3aS,6S,6aR)-6-[(2-amino-3-chloro-8-fluoroquinolin-7-yl)methyl]-2-(4-methyl-7H-pyrrolo[2,3-d]pyrimidin-7-yl)hexahydro-3aH-cyclopenta[b]furan-3,3a-diol]: it took 30 nM to reach a half-maximal effect (EC50). The same measure for `Cc1ncnc2c1ccn2[C@@H]1O[C@@H]2[C@H](Cc3ccc4cc(C(F)F)c(N)nc4c3)CC[C@]2(O)[C@H]1O` [Example 23, (2R,3R,3aS,6S,6aR)-6-((2-amino-3-(difluoromethyl)quinolin-7-yl)methyl)-2-(4-methyl-7H-pyrrolo[2,3-d]pyrimidin-7-yl)hexahydro-3aH-cyclopenta[b]furan-3,3a-diol]: 1.5 nM.
